Results on four molecules are retold here after ChEMBL document CHEMBL1201862, “PubChem BioAssay data set” (2004).

Test in all cases: growth of human tumour cells (NCI), 48 h
The subject of assay [1] is HCT-15.
For assay [2], the system named is DU-145.
The subject of assay [3] is RXF 393.
Assay [4] deals with HOP-62.
Assay [5] concerns RPMI-8226.
The subject of assay [6] is SF-295.
In assay [7] the test system is OVCAR-3.
Assay [8] has as its system BT-549.
Assay [9] relates to IGROV-1.
The test system of assay [10] is TK-10.
In assay [11] the test system is T47D.
Assay [12] has as its system SK-MEL-28.
In assay [13] the test system is SK-MEL-5.
For assay [14], the system named is SF-539.
In assay [15] the test system is SNB-75.
For assay [16], the system named is HOP-92.
The subject of assay [17] is NCI-H23.
Assay [18] has as its system NCI-H522.
Assay [19] has as its system Malme-3M.

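Five concentrations, 48 hours, 96-well plates. GI50 = concentration required for 50% inhibition of growth.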 The source made the active and inactive calls. Cut-off read from the data, not from the text of the source: active = GI50 up to about 1.1 µM and inactive = higher.

As to `COCCCN(Cc1cc(OC)c(OC)c(OC)c1)C(=S)Nc1cccc(Cl)c1`, the GI50 is 16.7 µM in [1]; 37.7 µM (inactive) in [2]; 26.8 µM (inactive) in assay [3]; 42.6 µM (inactive) in assay [4]; 14.9 µM (inactive) in assay [5]; 31.8 µM (inactive) in assay [6]. Besides, the GI50 is 41.6 µM (inactive) in [7]; 22.6 µM (inactive) in [8]; 34.4 µM (inactive) in assay [9]; 47 µM (inactive) in [10]; 12.2 µM (inactive) in assay [11]; 27.5 µM (inactive) in assay [12]. Besides, the GI50 in assay [13] is 13.9 µM (inactive); in [14] it was 42.8 µM (inactive); in assay [15] it was 25.3 µM (inactive); in [16] it was 20.2 µM (inactive).
As for `O=C1CCCSCCCC(=O)CCCSCCC1`, the GI50 in assay [1] is greater than 100 µM; in assay [2], > 100 µM (inactive); in [4] it was > 100 µM (inactive); in [6], > 100 µM (inactive); in [7] it was > 100 µM (inactive); in [8] it was > 100 µM (inactive). For the same molecule, the GI50 in assay [9], in assay [10], in assay [11], in assay [12], in [17] and in assay [13] was > 100 µM (inactive) each time. The GI50 in assay [14] is > 100 µM (inactive); in assay [15], 93.3 µM (inactive); in [16], > 100 µM (inactive); in [18] it was > 100 µM (inactive).
Turning to `COc1cc(C2c3cc4c(cc3OC(NN=C(C)C)C2C)OCO4)cc(OC)c1O` (stereo not drawn), the GI50 in [1] is 7.43 µM; in [2], 24.1 µM (inactive); in assay [3], 24.7 µM (inactive); in assay [19], 8.75 µM (inactive); in assay [5], 6.21 µM (inactive); in assay [6] it was 18.9 µM (inactive). Moreover, the GI50 in [7] is 19.5 µM (inactive); in assay [8], 12.2 µM (inactive); in assay [9] it was 15.7 µM (inactive); in [10], 25.4 µM (inactive); in assay [11], 69.2 µM (inactive); in [12], 11.5 µM (inactive). The GI50 in [17] is 26.7 µM (inactive); in assay [13], 10.8 µM (inactive); in assay [14], 21.2 µM (inactive); in [15], 3.66 µM (inactive); in assay [16], 62.4 µM (inactive); in assay [18], 3.94 µM (inactive).
Take `CC1(C)OCN(c2ccc(Cl)cc2)Cn2c1nc1ccccc12`: the GI50 in assay [1] is 0.431 µM; in [2], 6.85 µM (inactive); in assay [3] it was 62.1 µM (inactive); in [19] it was > 100 µM (inactive); in assay [4], > 27.3 µM (inactive); in assay [5], 19 µM (inactive). For the same molecule, the GI50 was > 51.9 µM (inactive) in assay [7]; > 100 µM (inactive) in [8]; 2.44 µM (inactive) in assay [9]; > 100 µM (inactive) in assay [10]; > 100 µM (inactive) in assay [11]; > 19.9 µM (inactive) in [12]. Further, the GI50 in [17] is 18.1 µM (inactive); in assay [13], 0.571 µM (active); in assay [14], 6.5 µM (inactive); in assay [15], > 100 µM (inactive); in [16], > 80.9 µM (inactive); in assay [18], 12.6 µM (inactive).
